Source: patent US8952024B2, “Herbicidal pyrimidone derivatives” (E I du Pont de Nemours and Company, priority 2009, dated 2015)

What was measured:
Test in all cases: Test A pre-/postemergence plant response
Format in all cases: in vivo
[1] = tested on: giant foxtail (Setaria faberii)
Excerpt: (§1) Seeds of barnyardgrass (Echinochloa crus-galli), large crabgrass (Digitaria sanguinalis), giant foxtail (Setaria faberii), morningglory (Ipomoea spp.), pigweed (Amaranthus retroflexus), velvetleaf (Abutilon theophrasti), wheat (Triticum aestivum) and corn (Zea mays) were planted into a blend of loam soil and sand and treated preemergence with a directed soil spray using test chemicals formulated in a non-phytotoxic solvent mixture which included a surfactant. At the same time these species were also treated with postemergence applications of test compounds formulated in the same manner.
(§2) Plants ranged in height from two to ten cm and were in the one- to two-leaf stage for the postemergence treatment. Treated plants and untreated controls were maintained in a greenhouse for approximately ten days, after which time all treated plants were compared to untreated controls and visually evaluated for injury. Plant response ratings, summarized in Table A, are based on a 0 to 100 scale where 0 is no effect and 100 is complete control. A dash (-) response means no test result.

[2] = tested on: morningglory (Ipomoea spp.)
Excerpt: as §1, §2

[3] = tested on: pigweed (Amaranthus retroflexus)
Excerpt: as §1, §2

corn (Zea mays) = settings: for Corn plant response rating: visual injury, 0 to 100 scale (0 no effect, 100 complete control), approx. ten days
Excerpt: as §1, §2

[4] = tested on: velvetleaf (Abutilon theophrasti)
Excerpt: as §1, §2

[5] = tested on: wheat (Triticum aestivum)
Excerpt: as §1, §2

[6] = tested on: barnyardgrass (Echinochloa crus-galli); settings: for Barnyardgrass plant response rating: visual injury, 0 to 100 scale (0 no effect, 100 complete control), approx. ten days
Excerpt: as §1, §2

[7] = tested on: large crabgrass (Digitaria sanguinalis); settings: for Crabgrass, Large plant response rating: visual injury, 0 to 100 scale (0 no effect, 100 complete control), approx. ten days
Excerpt: as §1, §2

[8] = Postemergence, 125 g ai/ha, 0 to 100 scale where 0 is no effect and 100 is complete control
[9] = Postemergence, 500 g ai/ha, visual injury, 0 to 100 scale (0 no effect, 100 complete control), approx. ten days
[10] = Preemergence, 125 g ai/ha, 0 to 100 scale, 0 = no effect, 100 = complete control
[11] = Preemergence, 500 g ai/ha, 0 to 100 scale, 0 = no effect, 100 = complete control
[12] = Postemergence, 125 g ai/ha, visual injury, 0 to 100 scale (0 no effect, 100 complete control), approx. ten days
[13] = Preemergence, 125 g ai/ha, 0 to 100 scale where 0 is no effect and 100 is complete control, approximately ten days

SMILES | Plant response rating, Foxtail, Giant [1, 8] | Foxtail, Giant plant response rating [1, 9] | Plant response rating, Foxtail, Giant [1, 11] | Morningglory plant response rating [2, 9] | Plant response rating, Morningglory [2, 11] | Pigweed plant response rating [3, 9] | Plant response rating, Pigweed [3, 11] | Plant response rating, Corn (corn (Zea mays); [8]) | Corn plant response rating (corn (Zea mays); Postemergence, 500 g ai/ha) | Plant response rating, Corn (corn (Zea mays); [11]) | Velvetleaf plant response rating [4, 9] | Plant response rating, Velvetleaf [4, 11] | Wheat plant response rating [5, 9] | Plant response rating, Wheat [5, 11] | Plant response rating, Barnyardgrass [6, 8] | Barnyardgrass plant response rating ([6]; Postemergence, 500 g ai/ha) | Plant response rating, Barnyardgrass [6, 11] | Plant response rating, Crabgrass, Large [7, 8] | Crabgrass, Large plant response rating ([7]; Postemergence, 500 g ai/ha) | Plant response rating, Crabgrass, Large [7, 11] | also measured
CCCn1c(-c2ccc3ccccc3c2)ncc(C(=O)C2=C(O)C3CCC(C3)C2=O)c1=O (stereo not drawn) [Compound 242] | 50 | 80 | 0 | 100 | 0 | 30 | 0 | 0 | 20 | 0 | 90 | 0 | 30 | 0 | 50 | 90 | 0 | 20 | 60 | 10 | Plant response rating, Foxtail, Giant [1, 10]: 0; Plant response rating, Morningglory [2, 8]: 40; Plant response rating, Morningglory [2, 10]: 0; Plant response rating, Pigweed [3, 8]: 20; Plant response rating, Pigweed [3, 10]: 0; Plant response rating, Corn (corn (Zea mays); [10]): 0; Plant response rating, Velvetleaf [4, 8]: 50; Plant response rating, Velvetleaf [4, 10]: 0; Plant response rating, Wheat [5, 8]: 0; Plant response rating, Wheat [5, 10]: 0; Plant response rating, Barnyardgrass [6, 10]: 0; Plant response rating, Crabgrass, Large [7, 10]: 0
CCCn1c(-c2ccc3c(c2)OCCO3)ncc(C(=O)C2=C(O)C3CCC(C3)C2=O)c1=O (stereo not drawn) [Compound 241] | 80 | 90 | 70 | 100 | 30 | 80 | 50 | 20 | 50 | 20 | 100 | 60 | 60 | 40 | 90 | 90 | 90 | 50 | 70 | 90 | Plant response rating, Foxtail, Giant [1, 10]: 10; Plant response rating, Morningglory [2, 8]: 100; Plant response rating, Morningglory [2, 10]: 0; Plant response rating, Pigweed [3, 8]: 70; Plant response rating, Pigweed [3, 10]: 20; Plant response rating, Corn (corn (Zea mays); [10]): 0; Plant response rating, Velvetleaf [4, 8]: 100; Plant response rating, Velvetleaf [4, 10]: 20; Plant response rating, Wheat [5, 8]: 40; Plant response rating, Wheat [5, 10]: 0; Plant response rating, Barnyardgrass [6, 10]: 10; Plant response rating, Crabgrass, Large [7, 10]: 20
O=C(C1=C(O)C2CCC(C2)C1=O)c1cnc(-c2ccccc2)n(C2CCCCCCCCCCC2)c1=O (stereo not drawn) [Compound 247] |  | 30 | 0 | 100 | 0 | 90 | 0 | 0 | 30 | 0 | 100 | 0 | 0 | 0 | 30 | 80 | 0 | 40 | 70 | 0 | Plant response rating, Foxtail, Giant [1, 12]: 0; Plant response rating, Foxtail, Giant [1, 13]: 0; Plant response rating, Morningglory [2, 12]: 100; Plant response rating, Morningglory [2, 13]: 0; Plant response rating, Pigweed [3, 12]: 70; Plant response rating, Pigweed [3, 13]: 0; Plant response rating, Corn (corn (Zea mays); [13]): 0; Plant response rating, Velvetleaf [4, 12]: 100; Plant response rating, Velvetleaf [4, 13]: 0; Plant response rating, Wheat [5, 12]: 0; Plant response rating, Wheat [5, 13]: 0; Plant response rating, Barnyardgrass [6, 13]: 0; Plant response rating, Crabgrass, Large [7, 13]: 0
